Laboratory results as given in patent US20210145000A1, “WEED CONTROL FROM APPLICATIONS OF PYRIDINE CARBOXYLIC ACID HERBICIDES AND ACETYL CoA CARBOXYLASE (ACCase) INHIBITORS” (Dow AgroSciences LLC, priority 2018, published 2021).

What was measured:
Assay in all cases: Postemergence herbicidal activity, greenhouse, visual injury
Assay type in all cases: in vivo
[1] = tested on: barnyardgrass (Echinochloa crus-galli, ECHCG); details: post-emergence, read-out: Effect (% visual injury) Obs
Protocol: (§1) The plants were grown for 7-36 days (d) in a greenhouse with an approximate 14-hour (h) photoperiod which was maintained at about 23° C. during the day and 22° C. during the night. Nutrients and water were added on a regular basis and supplemental lighting was provided with overhead metal halide 1000-Watt lamps as necessary. The plants were employed for testing when they reached the second or third true leaf stage.
(§2) Spray solutions of the experimental compound mixtures were prepared by adding the stock solutions to the appropriate amount of dilution solution to form a 12 mL spray solution in two-way combinations. […] Control plants were sprayed in the same manner with the solvent blank. Application rates for component (a) are in g ae/ha, and application rates for component (b) are in g ai/ha.
(§3) The treated plants and control plants were placed in a greenhouse as described above and watered by sub-irrigation to prevent wash-off of the test compounds. After 20-22 d, the condition of the test plants as compared with that of the control plants was determined visually and scored on a scale of 0 to 100 percent where 0 corresponds to no injury and 100 corresponds to complete kill. […] The Colby method was used to determine the herbicidal effects expected from the mixtures.

[2] = tested on: blackgrass (Alopecurus myosuroides, ALOMY); details: post-emergence, read-out: Effect (% visual injury) Obs
Protocol: as §1, §2, §3

[3] = tested on: giant foxtail (Setaria faberi, SETFA); details: post-emergence, read-out: Effect (% visual injury) Obs
Protocol: as §1, §2, §3

[4] = tested on: large crabgrass (Digitaria sanguinalis, DIGSA); details: post-emergence, read-out: Effect (% visual injury) Obs
Protocol: as §1, §2, §3

maize (Zea mays, ZEAMX) = details: post-emergence, read-out: Effect (% visual injury) Obs
Protocol: as §1, §2, §3

[5] = tested on: pigweed (Amaranthus retroflexus, AMARE); details: post-emergence, read-out: Effect (% visual injury) Obs
Protocol: as §1, §2, §3

[6] = tested on: rice (Oryza sativa, ORYSA); details: post-emergence, read-out: Effect (% visual injury) Obs
Protocol: as §1, §2, §3

[7] = tested on: velvetleaf (Abutilon theophrasti, ABUTH); details: post-emergence, read-out: Effect (% visual injury) Obs
Protocol: as §1, §2, §3

[8] = tested on: wild buckwheat (Polygonum convolvulus, POLCO); details: Fallopia convolvulus, post-emergence, read-out: Effect (% visual injury) Obs
Protocol: as §1, §2, §3

[9] = tested on: wild oat (Avena fatua, AVEFA); details: post-emergence, read-out: Effect (% visual injury) Obs
Protocol: as §1, §2, §3

[10] = tested on: wild pansy (Viola tricolor, VIOTR); details: post-emergence, read-out: Effect (% visual injury) Obs
Protocol: as §1, §2, §3

[11] = tested on: winter wheat (Triticum aestivum, TRZAW); details: post-emergence, read-out: Effect (% visual injury) Obs
Protocol: as §1, §2, §3

[12] = tested on: chickweed (Stellaria media, STEME); details: post-emergence, read-out: Effect (% visual injury) Obs
Protocol: (§4) Seeds of the desired test plant species were planted in Sun Gro MetroMix® 306 planting mixture, which typically has a pH of 6.0 to 6.8 and an organic matter content of about 30 percent, in plastic pots with a surface area of 103.2 square centimeters (cm^2). When required to ensure good germination and healthy plants, a fungicide treatment and/or other chemical or physical treatment was applied. The plants were grown for 7-36 days (d) in a greenhouse with an approximate 14-hour (h) photoperiod which was maintained at about 23° C. during the day and 22° C. during the night. Nutrients and water were added on a regular basis and supplemental lighting was provided with overhead metal halide 1000-Watt lamps as necessary. The plants were employed for testing when they reached the second or third true leaf stage.
(§5) An emulsifiable concentrate (EC) formulation containing Compound 1 at 100 gai/L was prepared by combining Compound 1 with 1-butyl-2-pyrrolidinone (Tamisolve NxG; 360.5 g/L), benzyl acetate (544.6 g/L) and Agnique MBL 520L surfactant (52.9 g/L). […] The concentrated stock solution was diluted with an aqueous mixture of 1.5% v/v of Agri-dex crop oil concentrate to provide the appropriate application rates. Compound requirements are based upon a 12 milliliter (mL) application volume at a rate of 187 liters per hectare (L/ha). Spray solutions of the experimental compound mixtures were prepared by adding the stock solutions to the appropriate amount of dilution solution to form a 12 mL spray solution in two-way combinations. Formulated compounds were applied to the plant material with an overhead Mandel track sprayer equipped with 8002E nozzles calibrated to deliver 187 L/ha over an application area of 0.503 square meters (m^2) at a spray height of 18 inches (43 centimeters (cm)) above average plant canopy. Control plants were sprayed in the same manner with the solvent blank. Application rates for component (a) are in g ae/ha, and application rates for component (b) are in g ai/ha.
as §3

[13] = tested on: poinsettia (Euphorbia heterophylla, EPHHL)
Protocol: as §4, §5, §3

[14] = tested on: winter rape (Brassica napus, BRSNW); details: post-emergence, read-out: Effect (% visual injury) Obs
Protocol: as §4, §5, §3

[15] = tested on: common lambsquarters (Chenopodium album L., CHEAL); details: post-emergence, read-out: Effect (% visual injury) Obs
Protocol: as §1, §2, §3

[16] = tested on: grain sorghum (Sorghum vulgare, SORVU); details: post-emergence, read-out: Effect (% visual injury) Obs
Protocol: as §1, §2, §3

[17] = tested on: soybean (Glycine max, GLXMA); details: post-emergence, read-out: Effect (% visual injury) Obs
Protocol: as §1, §2, §3

[18] = tested on: sunflower (Helianthus annuus, HELAN); details: post-emergence, read-out: Effect (% visual injury) Obs
Protocol: as §1, §2, §3

[19] = tested on: kochia (Kochia scoparia, KCHSC); details: Tralkoxydim 200 g ai/ha
Protocol: as §4, §5, §3

CCCCOC(=O)[C@@H](C)Oc1ccc(Oc2ccc(C(F)(F)F)cn2)cc1 [Fluazifop-butyl]
pest or weed control at 105 g/ha [1]: 100%
pest or weed control at 105 g/ha [2]: 20%
pest or weed control at 105 g/ha [3]: 97%
pest or weed control at 105 g/ha [4]: 95%
plant injury at 105 g/ha (maize (Zea mays, ZEAMX)): 100%
pest or weed control at 105 g/ha [5]: 0%
plant injury at 105 g/ha [6]: 85%
pest or weed control at 105 g/ha [7]: 0%
pest or weed control at 105 g/ha [8]: 0%
pest or weed control at 105 g/ha [9]: 95%
pest or weed control at 105 g/ha [10]: 0%
plant injury at 105 g/ha [11]: 90%
pest or weed control at 105 g/ha [12]: 0%
Effect (% visual injury) Obs ([13]; Fluazifop-butyl 105 g ai/ha): 0%
plant injury at 105 g/ha [14]: 0%

COC(=O)[C@@H](C)Oc1ccc(Oc2ncc(C(F)(F)F)cc2Cl)cc1 [Haloxyfop-P-methyl]
pest or weed control at 70 g/ha [1]: 100%
pest or weed control at 70 g/ha [2]: 97%
pest or weed control at 70 g/ha [15]: 0%
plant injury at 70 g/ha [16]: 100%
pest or weed control at 70 g/ha [4]: 100%
plant injury at 70 g/ha (maize (Zea mays, ZEAMX)): 100%
pest or weed control at 70 g/ha [5]: 0%
plant injury at 70 g/ha [6]: 100%
plant injury at 70 g/ha [17]: 0%
plant injury at 70 g/ha [18]: 0%
pest or weed control at 70 g/ha [7]: 0%
pest or weed control at 70 g/ha [8]: 0%
pest or weed control at 70 g/ha [10]: 0%
plant injury at 70 g/ha [11]: 100%
pest or weed control at 70 g/ha [12]: 0%
Effect (% visual injury) Obs ([13]; Haloxyfop-P-methyl 70 g ai/ha): 0%
plant injury at 70 g/ha [14]: 0%

CCc1cc(C)cc(CC)c1-c1c(OC(=O)C(C)(C)C)n2n(c1=O)CCOCC2 [Pinoxaden]
pest or weed control ([1]; Pinoxaden 30 g ai/ha): 100%
pest or weed control ([15]; Pinoxaden 30 g ai/ha): 0%
pest or weed control ([3]; Pinoxaden 30 g ai/ha): 0%
plant injury ([16]; Pinoxaden 30 g ai/ha): 100%
pest or weed control ([4]; Pinoxaden 30 g ai/ha): 10%
plant injury (maize (Zea mays, ZEAMX); Pinoxaden 30 g ai/ha): 10%
pest or weed control ([5]; Pinoxaden 30 g ai/ha): 0%
plant injury ([6]; Pinoxaden 30 g ai/ha): 99%
plant injury ([17]; Pinoxaden 30 g ai/ha): 0%
plant injury ([18]; Pinoxaden 30 g ai/ha): 0%
pest or weed control ([7]; Pinoxaden 30 g ai/ha): 0%
pest or weed control ([8]; Pinoxaden 30 g ai/ha): 0%
pest or weed control ([9]; Pinoxaden 30 g ai/ha): 95%
pest or weed control ([10]; Pinoxaden 30 g ai/ha): 0%
plant injury ([11]; Pinoxaden 30 g ai/ha): 0%
pest or weed control at 30 g/ha ([12]; Pinoxaden 30 g ai/ha): 0%

CCOC(=O)[C@@H](C)Oc1ccc(Oc2cnc3cc(Cl)ccc3n2)cc1 [Quizalofop-P-ethyl]
pest or weed control at 75 g/ha [1]: 100%
pest or weed control at 75 g/ha [2]: 100%
pest or weed control at 75 g/ha [15]: 0%
pest or weed control at 75 g/ha [3]: 100%
plant injury at 75 g/ha [16]: 100%
pest or weed control at 75 g/ha [4]: 100%
plant injury at 75 g/ha (maize (Zea mays, ZEAMX)): 100%
pest or weed control at 75 g/ha [5]: 0%
plant injury at 75 g/ha [6]: 100%
plant injury at 75 g/ha [17]: 0%
plant injury at 75 g/ha [18]: 0%
pest or weed control at 75 g/ha [7]: 0%
pest or weed control at 75 g/ha [8]: 0%
pest or weed control at 75 g/ha [9]: 98%
pest or weed control at 75 g/ha [10]: 0%
plant injury at 75 g/ha [11]: 99%

CCON=C(CC)C1=C(O)CC(c2c(C)cc(C)cc2C)CC1=O (stereo not drawn) [Tralkoxydim, 2-[1-(ethoxyimino)propyl]-3-hydroxy-5-mesitylcyclohex-2-enone]
pest or weed control at 200 g/ha [1]: 30%
pest or weed control at 200 g/ha [15]: 5%
pest or weed control at 200 g/ha [3]: 0%
plant injury at 200 g/ha [16]: 60%
pest or weed control at 200 g/ha [4]: 50%
plant injury at 200 g/ha (maize (Zea mays, ZEAMX)): 100%
pest or weed control at 200 g/ha [5]: 0%
plant injury at 200 g/ha [6]: 75%
plant injury at 200 g/ha [17]: 0%
pest or weed control at 200 g/ha [7]: 0%
pest or weed control at 200 g/ha [8]: 0%
pest or weed control at 200 g/ha [9]: 100%
pest or weed control at 200 g/ha [10]: 5%
pest or weed control at 200 g/ha [12]: 10%
Effect (% visual injury) Obs [19]: 0%
Effect (% visual injury) Obs ([13]; Tralkoxydim 200 g ai/ha): 0%
plant injury at 200 g/ha [14]: 0%
